The subject of experiment [1] is dextran sodium sulfate (DSS)-induced ulcerative colitis model in the rat. Briefly: Rat model of DSS-induced ulcerative colitis, 7-day repetitive intrarectal administration (Example 1). The format is in vivo, SD rats. The following applies: 7 days; for Hb / Ht / RBC / WBC: hematological examination, i.r., DSS rat; for colon contraction: DSS rat (Figure 2). From the text: The therapeutic effect of YY-1 was investigated with the 7-day repetitive intrarectal administration using a dextran sodium sulfate (DSS)-induced ulcerative colitis model in the rat (Cancer Research, 61, 2424-2428, 2001). To generate the rat model of DSS-induced ulcerative colitis, a 3% aqueous DSS solution was ingested ad libitum by SD rats (male, age: 7 weeks) purchased from Charles River Laboratories Japan Inc., and animals presenting bloody stools were used as the rat model of DSS-induced ulcerative colitis.
The negative control group received 0.5% aqueous CMC-Na solution (vehicle) by intrarectal administration, while the positive control group received 100 mg/kg/day 5-aminosalicylic acid (5-ASA, purchased from Aldrich Chemical Company) dissolved in 0.5% aqueous CMC-Na solution by intrarectal administration. For YY-1, the compound was combined with 0.5% aqueous CMC-Na solution by means of a vortex mixing and sonication to form a suspension, and was administered intrarectally at 20 mg/kg/day (low dose group), 100 mg/kg/day (intermediate dose group), and 500 mg/kg/day (high dose group). Each group contained 8 SD rats, and a 1% aqueous DSS solution was ingested ad libitum during the test period.

Experiment [2] relates to dextran sodium sulfate (DSS)-induced ulcerative colitis model in the mouse. Briefly: Mouse model of DSS-induced ulcerative colitis, 7-day repetitive intrarectal administration, 5.0% DSS during test period (Example 2). The format is in vivo, c57BL/6J mice. The following applies: 7 days; for body weight gain: P < 0.05 (Figure 4); for symptom alleviation: P < 0.05 (Figure 5); for colon contraction: P < 0.05 (Figure 6). An excerpt:
(§1) The therapeutic effect of YY-1 was investigated with the 7-day repetitive intrarectal administration using a dextran sodium sulfate (DSS)-induced ulcerative colitis model in the mouse. To generate the mouse model of DSS-induced ulcerative colitis, a 9.0% aqueous DSS solution was ingested ad libitum for 7 days by c57BL/6J (male, age: 8 weeks) purchased from CLEA Japan, Inc., and animals presenting body weight loss, bloody stool, and/or diarrhea were used as the mouse model of DSS-induced ulcerative colitis.
The negative control group received 0.5% aqueous CMC-Na solution by intrarectal administration, while the positive control group received 100 mg/kg/day 5-aminosalicylic acid (5-ASA, purchased from Aldrich Chemical Company) dissolved in 0.5% aqueous CMC-Na solution by intrarectal administration. For YY-1, the compound was combined with 0.5% aqueous CMC-Na solution by means of an ultrasound mixer under ice cooling to form a suspension, and was administered intrarectally at 100 mg/kg/day or 500 mg/kg/day. Each group contained 8 c57BL/6J mice, and a 5.0% aqueous DSS solution was ingested ad libitum during the test period (Figure 3).

The test system is the same in experiment [3]. Briefly: Mouse model of DSS-induced ulcerative colitis, 7-day repetitive intrarectal administration, 9.0% DSS during test period (Example 3). The following applies: 500 mg/kg/day intrarectal, 7 days. The class given is in vivo, c57BL/6J mice.
Source text: as §1
The negative control group received 0.5% aqueous CMC-Na solution by intrarectal administration. For YY-1, the compound was combined with 0.5% aqueous CMC-Na solution by means of an ultrasound mixer under ice cooling to prepare a suspension, and was administered intrarectally at 500 mg/kg/day. Each group contained 8 c57BL/6J mice, and a 9.0% aqueous DSS solution was ingested ad libitum during the test period (Figure 7).

For the compound `Nc1ccc(O)c(C(=O)O)c1` [5-ASA, 5-aminosalicylic acid, reference compound], in experiment [1] (100 mg/kg/day), the Hb turned out to be 13.3 ± 0.4 g/dL, the Ht worked out at 41.7 ± 1.1%, the RBC is 633 ± 27 x 10^4/µL and the WBC is 126 ± 20 x 10^2/µL.

`CC/C=C\C/C=C\C/C=C\C/C=C\C/C=C\C=C\C(O)CCC(=O)O` (stereo not shown) [YY-1, (5E,7Z,10Z,13Z,16Z,19Z)-4-hydroxy-5,7,10,13,16,19-docosahexaenoic acid]: the body weight gain result in experiment [2] (100 mg/kg/day intrarectal), in experiment [2] (500 mg/kg/day intrarectal) and in experiment [3] (P < 0.05 (Figure 8)) was “significant improvement” each time. For the same compound, the symptom alleviation result in experiment [2] (100 mg/kg/day intrarectal), in experiment [2] (500 mg/kg/day intrarectal) and in experiment [3] (P < 0.05 (Figure 9)) was “significant improvement” each time. Moreover, the colon contraction entry in experiment [2] (100 mg/kg/day intrarectal), in experiment [2] (500 mg/kg/day intrarectal), in experiment [3] (P < 0.01 (Figure 10)), in experiment [1] (100 mg/kg/day intrarectal) and in experiment [1] (500 mg/kg/day intrarectal) was “significant improvement” each time. The “area of erosion in the mucous membrane of the colon” value in experiment [1] (500 mg/kg/day intrarectal, DSS rat (Figure 1)) is recorded as “significant reduction”. The Hb amounted to 11 ± 1.5 g/dL in experiment [1] (20 mg/kg/day), 12.2 ± 0.9 g/dL in experiment [1] (100 mg/kg/day) and 13.8 ± 0.3 g/dL in experiment [1] (500 mg/kg/day). For the same compound, the Ht in experiment [1] (20 mg/kg/day) is 35.5 ± 4.6%; in experiment [1] (100 mg/kg/day), 41.5 ± 3.2%; in experiment [1] (500 mg/kg/day), 45.7 ± 1.1%. The RBC is recorded as 519 ± 80 x 10^4/µL in experiment [1] (20 mg/kg/day), 605 ± 51 x 10^4/µL in experiment [1] (100 mg/kg/day) and 670 ± 20 x 10^4/µL in experiment [1] (500 mg/kg/day). Besides, the figures for the WBC in experiment [1] (20 mg/kg/day), in experiment [1] (100 mg/kg/day) and in experiment [1] (500 mg/kg/day) were 136 ± 34 x 10^2/µL, 120 ± 13 x 10^2/µL and 138 ± 14 x 10^2/µL, respectively.

These data come from patent publication EP1946754A1, “THERAPEUTIC AGENT FOR ULCERATIVE COLITIS AND/OR CROHN'S DISEASE” (Yamamoto, Keiko, priority 2005, dated 2007).
